Assay results taken from US6342516B1, “Phenylazole compounds, process for producing the same and drugs for hyperlipemia” (Nippon Soda Co., Ltd., priority 1998, dated 2002).
pIC50: −log10 of the molar value.

Assays:
[1] = system: Lipid peroxidation activity in rat liver microsome; assay: Effect on lipid peroxidation in vitro (rat liver microsome, thiobarbituric acid method); type: biochemical; settings: rat liver microsomes, 500 μM cystein and 5 μM ferrous(II) sulfate, malonaldehyde by thiobarbituric acid method; read-out: Lipid Antiperoxidation Activity 50% Inhibition Concentration (IC50)
Description: Pharmacological Test Example 2: Effect on lipid peroxidation in vitro
Lipid peroxidation activity in rat liver microsome was determined according to the method of Malvy et al. (Malvy et al., Biochemical and Biophysical Research Communications, 95, 734-737 (1980)). More particularly, 500 μM cystein and 5 μM ferrous(II) sulfate were incubated with rat liver microsomes, and the amount of malonaldehyde produced due to the decomposition of lipid peroxide was determined according to thiobarbituric acid method. The concentration of the compounds required to inhibit the formation of lipid peroxide by 50% (IC50) was calculated.

cholesterol-fed hamsters = assay: Effect on serum lipids of cholesterol-fed hamsters (serum total cholesterol and triglyceride reduction rate); type: in vivo; settings: cholesterol-fed Syrian hamsters, oral once a day for 5 days
Description: Pharmacological Test Example 1: Effect on serum lipids of cholesterol-fed hamsters
Syrian hamsters (Std:Syrian, Male, 4 weeks old) were freely fed with chow containing 1% cholesterol and 10% coconut oil for 3 weeks ad libitum.
At the last week of feeding, each of the test compounds was dissolved or suspended in either 0.1% hydrochloric acid solution or 1% polyethylene-hydrogenated castor oil (NIKKOL HCO-60) solution and was orally administrated to hamsters once a day for 5 days. For the hamsters of the control group, only the solvent was orally administered. Then, blood was collected from the abdominal vein under the condition of anesthesia with pentobarbital at 2-4 hours after the last administration, and the serum in the blood was separated. The serum total cholesterol value and the serum triglyceride value were determined by using autobiochemical analyzer with analizing kits, and reduction rate of the serum lipids was determined according to the equation indicated below based on the analyzed values for respective hamster groups.
Serum lipids reduction rate (%)=(Amount of serum lipids of the control group−Amount of serum lipids of the group administrated with the test compound)/Amount of serum lipids of the control group×100

[2] = system: carbon tetrachloride induced liver damage model in rats; assay: Carbon tetrachloride induced liver damage model in rats (lipid peroxide in liver; serum GOT, GPT); type: in vivo, rats (SD-strain, male); settings: for Antioxidation Activity of Lipid: Mass of lipid peroxide / Antioxidation Activity of Lipid: Prevention Rate: liver at 24 hours; for Preventive Activity on Liver Disorder: GOT / Preventive Activity on Liver Disorder: GOT Prevention Rate / Preventive Activity on Liver Disorder: GPT / Preventive Activity on Liver Disorder: GPT Prevention Rate: serum
Description: Pharmacological Test Example 3: Effect on lipid peroxidation […] Effect of the compounds of the present invention on the produced lipid peroxide in liver was examined on carbon tetrachloride induced liver damage model in rats. Briefly, providing 5 SD-strain male rats (6 weeks old) for each group, carbon tetrachloride at the rate of 1 ml/kg or 2 ml/kg (0.5 ml/kg or 1 ml/kg based on carbon tetrachloride) was orally administered to the rats together with the equivalent dose of olive oil. At 24 hours after the administration of carbon tetrachloride, their livers were excised, and the produced amount of lipid peroxide in liver was determined by thiobarbituric acid method according to Uchiyama's method (Uchiyama, M., et al., Analytical biochemistry, 86, 271-278 (1978)). In parallel, as the indicator for liver disorder due to carbon tetrachloride, serum enzyme activity (GOT, GPT) was measured. Then each of the test compounds, which was either dissolved or suspended in either 0.1% hydrochloric acid solution or olive oil, was orally administered to the rats 3 times at 1 before and, 3 and 6 hours after the administration of carbon tetrachloride. For the rats of normal group and control groups, the solvent was orally administered. Based on the measured values for each groups, the inhibitory rate of producing peroxidized lipids and the inhibitory rate of causing liver disorder were calculated according to the following equation. Inhibitory rate of producing lipid peroxide (%)=[1−(Produced amount of lipid peroxide in the test compound group−Produced amount of lipid peroxide in the normal rat group)/(Produced amount of lipid peroxide in the control group−Produced amount of lipid peroxide in the normal rat group)]×100 Liver disorder preventing rate (%)=[1−(GOT amount of GPT amount in the test compound group−GOT amount or GPT amount in the normal rat group)/(GOT amount or GPT amount in the control group−GOT amount or GPT amount in the normal rat group)]×100 The results are presented in Table 8.

rats (male SD-strain) = settings: rat, in vivo, 100 mg/kg/day
Description: Pharmacological Test Example 4: Repeated Oral Administration Toxicity
The Compound with No. 3-1 was suspended in 1% polyethylene-hardened castor oil (NIKKOL HCO-60) solution, and the suspension was orally administered to rats (male SD-strain), 6 rats per group, at a rate of 100 mg/kg/day for 7 days.

[3] = CCl4: 1 ml/kg, dose 10 mg/kg oral 3 times
[4] = CCl4: 0.5 ml/kg, dose 100 mg/kg oral 3 times

pIC50 [1] | SMILES | Serum lipids reduction rate comparing to Control group (%), Means of 3 animals: Total cholesterol (cholesterol-fed hamsters; dose 25 mg/kg) | Serum lipids reduction rate comparing to Control group (%), Means of 3 animals: Triglyceride (cholesterol-fed hamsters; dose 25 mg/kg) | further results
6.04 | Cc1c(C)c2c(c(C)c1O)CC(C)(C=CC(=O)Nc1ccc(-n3ccnc3)cc1)O2 (racemic) [3-15] | 26% | 30% | 
5.55 | CC(=O)Oc1c(C)c(C)c2c(c1C)CC(C)(C(=O)Nc1ccc(-n3ccnc3)cc1)O2 (racemic) [3-13] |  |  | 
5.42 | Cc1c(C)c2c(c(C)c1O)CCC(C)(C(=O)NCCCCCC(=O)Nc1ccc(-n3ccnc3)cc1)O2 (racemic) [3-8] |  |  | 
5.68 | Cc1c(C)c2c(c(C)c1O)CC(C)(C=CC=CC(=O)Nc1ccc(-n3ccnc3)cc1)O2 (racemic) [3-16] |  |  | 
5.64 | Cc1c(C)c2c(c(C)c1O)CCC(C)(CC(=O)Nc1ccc(-n3ccnc3)cc1)O2 (racemic) [3-4] | 37% | 80% | 
5.68 | Cc1c(C)c2c(c(C)c1O)CC(C)(CCC(=O)Nc1ccc(-n3ccnc3)cc1)O2 (racemic) [3-10] | 35% | 51% | 
5.72 | Cc1c(C)c2c(c(C)c1O)CC(C)(C(=O)Nc1ccc(-n3ccnc3)cc1)O2 (racemic) [3-9] | 38% | 49% | 
5.59 | Cc1c(C)c2c(c(C)c1OC(=O)c1ccccc1)CCC(C)(C(=O)Nc1ccc(-n3ccnc3)cc1)O2 (racemic) [3-14] | 22% | 31% | 
5.89 | Cc1c(C)c2c(c(C)c1O)CCC(C)(CCC(=O)Nc1ccc(-n3ccnc3)cc1)O2 (racemic) [3-5] |  |  | 
5.60 | Cc1c(C)c2c(c(C)c1O)CC(C)(CCCCC(=O)Nc1ccc(-n3ccnc3)cc1)O2 (racemic) [3-12] |  |  | 

The next lines start with the compound.

SMILES | pIC50 [1] | Serum lipids reduction rate comparing to Control group (%), Means of 3 animals: Total cholesterol (cholesterol-fed hamsters; dose 25 mg/kg) | Serum lipids reduction rate comparing to Control group (%), Means of 3 animals: Triglyceride (cholesterol-fed hamsters; dose 25 mg/kg) | further results
Cc1c(C)c2c(c(C)c1O)CCC(C)(C(=O)Nc1ccc(-c3ccn[nH]3)cc1)O2 (racemic) [Compound No. 3-25, (±)-(6-hydroxy-2,5,7,8-tetramethylchroman-2-yl)-N-[4-(pyrrazol-5-yl)phenyl]carboxamide] | 6.31 |  |  | 
CC1=C(C)C(=O)C(C(CCCc2ccccc2)CCC(=O)Nc2ccc(-n3ccnc3)cc2)=C(C)C1=O (centres unmarked) [Compound No. 3-28, N-[4-(imidazol-1-yl)phenyl]-7-phenyl-4-(3,5,6-trimethyl-1,4-benzoquinon-2-yl)heptanamide] | 5.48 | 29% | 23% | Antioxidation Activity of Lipid: Mass of lipid peroxide [2, 3]: 5.781 A535nm/g lever; Antioxidation Activity of Lipid: Prevention Rate [2, 3]: 61%; Preventive Activity on Liver Disorder: GOT [2, 3]: 269 IU/L; Preventive Activity on Liver Disorder: GOT Prevention Rate [2, 3]: 76%; Preventive Activity on Liver Disorder: GPT [2, 3]: 82 IU/L; Preventive Activity on Liver Disorder: GPT Prevention Rate [2, 3]: 82%
Cc1c(C)c2c(c(C)c1O)CCC(C)(C(=O)Nc1ccc(-n3ccnc3)cc1)O2 (racemic) [Compound No. 3-1, (±)-(6-Hydroxy-2,5,7,8-tetramethylchroman-2-yl)-N-[4-(imidazol-1-yl)phenyl]carboxamide] | 5.57 | 40% | 62% | Antioxidation Activity of Lipid: Mass of lipid peroxide [2, 4]: 2.361 A535nm/g lever; Antioxidation Activity of Lipid: Prevention Rate [2, 4]: 96%; Preventive Activity on Liver Disorder: GOT [2, 4]: 137 IU/L; Preventive Activity on Liver Disorder: GOT Prevention Rate [2, 4]: 100%; Preventive Activity on Liver Disorder: GPT [2, 4]: 61 IU/L; Preventive Activity on Liver Disorder: GPT Prevention Rate [2, 4]: 86%; Repeated oral administration toxicity (death, toxicological symptoms) (rats (male SD-strain)): neither death nor any toxicological symptoms were observed
CC(=O)Oc1c(C)c(C)c2c(c1C)CC(C)(C(=O)Nc1ccc(-c3ccn[nH]3)cc1)O2 (racemic) [3-19] | 6.38 |  |  | 
COc1cc2cc(CCC(=O)Nc3ccc(-n4ccnc4)cc3)n(S(C)(=O)=O)c2cc1OC [4-100] |  | 26% | 33% | 
Cc1c(C(=O)Nc2ccc(-n3ccnc3)cc2)oc2ccccc12 [4-62] |  | 42% | 59% | 
O=C(Nc1ccc(-n2ccnc2)cc1)C1CCCO1 (racemic) [4-17] |  |  |  | Serum lipids reduction rate comparing to Control group (%), Means of 3 animals: Total cholesterol (cholesterol-fed hamsters; dose 12.5 mg/kg): 35%; Serum lipids reduction rate comparing to Control group (%), Means of 3 animals: Triglyceride (cholesterol-fed hamsters; dose 12.5 mg/kg): 53%
O=C(Nc1ccc(-n2ccnc2)cc1)C1CCOCC1 [4-32] |  | 58% | 68% | 
O=C(Nc1ccc(-n2ccnc2)cc1)c1cc2cc(Cl)ccc2[nH]1 [Compound No. 4-8] |  | 37% | 73% | 
O=C(COc1nc2c(c(C(F)(F)F)n1)CCO2)Nc1ccc(-n2ccnc2)cc1 [4-81] |  |  |  | Serum lipids reduction rate comparing to Control group (%), Means of 3 animals: Total cholesterol (cholesterol-fed hamsters; dose 12.5 mg/kg): 22%; Serum lipids reduction rate comparing to Control group (%), Means of 3 animals: Triglyceride (cholesterol-fed hamsters; dose 12.5 mg/kg): 43%
O=C(COc1ccc2ccccc2n1)Nc1ccc(-n2ccnc2)cc1 [4-96] |  | 36% | 50% | 
Cc1cc(C(C)(C)C)c(O)c(C(C)(C)C)c1 [BHT, 2,6-t-Dibutyl-p-cresol, reference compound] | 5.66 |  |  | 
